Test results: US9222137B2, “Method for monitoring minimal residual hairy cell leukemia” (Trovagene, Inc., priority 2011, dated 2015)
Entries after “also recorded” stand apart in the source; their conditions may differ.

Columns and labels:
[1] = test system: phosphorylated MEK and ERK in purified primary HCL cells (BRAF V600E); assay: Western blot analysis of MEK and ERK phosphorylation in purified HCL cells incubated in vitro with BRAF inhibitor; type: cell-based, human; details: primary leukemic HCL cells; 250 nM, 500 nM or 1000 nM (≦1 μM); 2, 6 and 24 h incubation; vs vehicle (DMSO)
Experimental: Fresh leukemic cells purified from the peripheral blood of 5 patients with HCL were seeded in triplicate (2 to 3×10^5 cells/well, depending on the patient) in 96-well flat-bottom plates, and left recovering by overnight incubation at 37° C. and 5% CO2 in cell culture medium (RPMI1640 with 10% fetal bovine serum, glutamine and antibiotics). […] DMSO (the drug vehicle) was added in parallel wells as control. Cells were then harvested at different time points (2 h, 6 h and 24 h), washed 3 times in PBS, lysed in Laemmli sample buffer and boiled at 95° C. for 5 minutes. […] Protein lysates (6 to 7.5×10^4 fresh cell equivalent, depending on the patient; 2×10^5 frozen cell equivalent) were separated by SDS-polyacrylamide gel electrophoresis (SDS-PAGE) on pre-cast electrophoresis gels (12% Resolving gel cat. 456-1043 or Any kD Resolving Gel cat. 456-9036, Biorad), transferred to a 0.45 um pore size nitrocellulose transfer membrane (Whatman GmbH, Dassel, Germany), and probed with specific primary antibodies directly or after stripping (with Restore Western Blot Stripping Buffer, Pierce/Thermo Scientific cat. 21059). The anti-phospho-ERK1/2 (clone D13.14.4E; 1:2000 dilution), anti-phospho-MEK1/2 (clone 166F8; 1:1000 dilution), anti-ERK1/2 (clone 137F5; 1:1000 dilution) rabbit monoclonal antibodies and the anti-MEK1/2 (clone L38C12; 1:1000 dilution) mouse monoclonal antibody were all from Cell Signaling Technology. Upon incubation with horseradish peroxidase-conjugated secondary antibodies (GE Healthcare Lifesciences, Uppsala, Sweden), polypeptides were visualized using an enhanced chemiluminescence (ECL) western blot detection kit according to the manufacturer's instruction (GE Healthcare Lifesciences). Protein lysates (3×10^4 to 2×10^5 cell equivalent, depending on the experiment) from either serum-starved (45 min at 37° C. and 5% CO2 in RPMI1640) or unstarved human leukemic T-cell line Jurkat cells were used as negative and positive control, respectively, for ERK1/2 and MEK1/2 phosphorylation.
Membranes were probed with antibodies against phospho-ERK, phosphoMEK, total ERK and total MEK, as indicated on the far right. Protein lysates from either serum-starved or unstarved human leukemic Jurkat T cell line cells were used as negative (−) and positive (+) control, respectively, for ERK and MEK phosphorylation.

[2] = test system: hairy cell leukemia; assay: Case report: index HCL patient treated with pentostatin; type: in vivo, human
Text: Splenomegaly was present. […] At immunohistochemistry, leukemic cells were positive for CD20, DBA44, CD68 and Annexin-A1; expression of CD20, CD11c, CD25 and CD103 was documented by flow cytometry.

Q: Which “phosphorylation of ERK (phospho-ERK, Western blot)” value [1] does the source give for `CCCS(=O)(=O)Nc1ccc(F)c(C(=O)c2c[nH]c3ncc(Cl)cc23)c1F` [PLX-4720] here?
A: Its value is “dose-dependent dephosphorylation; also recorded: marked decrease”.

Q: And the “phosphorylation of MEK (phospho-MEK, Western blot)” value [1]?
A: The value was “dose-dependent dephosphorylation; also recorded: marked decrease”.

Q: With `OC[C@H]1O[C@@H](n2cnc3c2NC=NC[C@H]3O)C[C@@H]1O` [pentostatin] as the molecule, how does the “clinical outcome after therapy” value [2] read?
A: Its value is “complete hematological remission”.
